Data on 1 compound can be found in article PMC9440176, “Novel benzylidene benzofuranone analogues as potential anticancer agents: design, synthesis and in vitro evaluation based on CDK2 inhibition assays” (3 Biotech, 2022).

A short description of assay [1]: ABTS.+ radical scavenging assay.
For a further assay, the system named is MCF-7. In words: MTT cytotoxicity assay on MCF-7. The format is cell-based. The note with it: 24 h, read-out: Inhibition of cell proliferation, IC50, MCF-7. A general note: Tetrazolium assays rely on reduction of a dye to a coloured formazan, in cell work by metabolically active cells.
Assay [2] has as its system normal epithelial kidney cells (Vero). In words: MTT cytotoxicity assay on Vero. Particulars: 24 h, read-out: Inhibition of cell proliferation, IC50, Vero. The format is cell-based.
Another assay relates to HCT 116 cells. In words: Apoptotic DNA fragmentation study. The class given is cell-based, Human. On the procedure:
Cells were seeded at a concentration of 1 × 10^6 per 35 mm dish and incubated at 37 °C/5% CO2 for 24 h. The confluent cells grown after 24 h of incubation were treated with sample concentrations at 10 μg/ml, 20 μg/ml and control (without sample). After the treatment, cells were trypsinized and both the adherent as well as floating cells were collected by centrifugation at 2000 rpm for 5 min. The cell pellet was later suspended in 0.5 ml lysis buffer (pH 7.8) [Tris–HCl 10 mM, pH 8; EDTA 20 mM, pH 8.0; TritonX-100 0.2% and 4 M NaCl], vortexed vigorously and incubated at 50 °C for 5 min. To the lysate, 0.5 ml of phenol: chloroform: isoamylalcohol was added and mixed for about 2–3 min. Further, it was centrifuged at 10,000 rpm for 15 min at 4 °C.The upper aqueous layer was taken in another tube to which, twice the volume of cold 100% ethanol was added along with 3 M sodium acetate (Final concentration of sodium acetate 0.3 M). It was incubated for 5–10 min at room temperature. Further, centrifuged again at 10,000 rpm for 20 min. After removing the supernatant, the DNA pellet was washed in 70% ethanol and centrifuged at 5000 rpm for the next 10 min. The supernatant was removed, the DNA pellet was air dried and was finally dissolved in TE buffer (Tris–HCl 10 mM, pH 7.4, EDTA 1 mM, pH 8.0) and separated by 2% agarose gel electrophoresis at 100 V for 50 min.

A further assay addresses CDK2/Cyclin A (Homo sapiens, UniProt P24941). In words: CDK2/cyclin A inhibitory assay, Z'-LYTE FRET kinase assay. The class given is biochemical. Particulars: concentration of 100 micro molar; 1000 ng/ml kinase, 1000 µM ATP.

As to `COc1ccc(/C=C2\Oc3c(c(OC)cc(OC)c3C3=CCN(C(C)C)CC3)C2=O)cc1OC` [NISOA4], the IC50 was 127 ± 12.5 µM in assay [1], 35.6 µM in the assay with MCF-7 and above 200 µM in assay [2]. The “DNA fragmentation on agarose gel” value in the assay with HCT 116 cells (12.5 μM) is on record as “smearing”; in the assay with HCT 116 cells (25 μM), “fragmentation in the form of DNA laddering”. The “% inhibition on CDK2/cyclin A” value on CDK2/Cyclin A stood at 42.787%.
